# Source: patent US8841450B2, “Compounds useful as inhibitors of ATR kinase” (Vertex Pharmaceuticals Incorporated, priority 2011, dated 2014)
# Molecular target: ATR kinase (Homo sapiens (Human), UniProt Q13535)
# Assay: ATR Inhibition Assay (radioactive-phosphate incorporation)
# Type: biochemical
# Settings: Ki(app); 5 nM full-length ATR, 10 μM [γ-33P]ATP, 800 μM target peptide, 25° C.
# Procedure: Compounds were screened for their ability to inhibit ATR kinase using a radioactive-phosphate incorporation assay. Assays were carried out in a mixture of 50 mM Tris/HCl (pH 7.5), 10 mM MgCl2 and 1 mM DTT. Final substrate concentrations were 10 μM [γ-33P]ATP (3mCi 33P ATP/mmol ATP, Perkin Elmer) and 800 μM target peptide (ASELPASQPQPFSAKKK).
# Assays were carried out at 25° C. in the presence of 5 nM full-length ATR. An assay stock buffer solution was prepared containing all of the reagents listed above, with the exception of ATP and the test compound of interest. 13.5 μL of the stock solution was placed in a 96 well plate followed by addition of 2 μL of DMSO stock containing serial dilutions of the test compound (typically starting from a final concentration of 15 μM with 3-fold serial dilutions) in duplicate (final DMSO concentration 7%). The plate was pre-incubated for 10 minutes at 25° C. and the reaction initiated by addition of 15 μL [γ-33P]ATP (final concentration 10 μM).
# The reaction was stopped after […] by the addition of 30 μL 0.1M phosphoric acid containing 2 mM ATP. […]
# After removing mean background values for all of the data points, Ki(app) data were calculated from non-linear regression analysis of the initial rate data using the Prism software package (GraphPad Prism version 3.0cx for Macintosh, GraphPad Software, San Diego, Calif., USA).
# ATR kinase, sequence (Q13535 whole entry): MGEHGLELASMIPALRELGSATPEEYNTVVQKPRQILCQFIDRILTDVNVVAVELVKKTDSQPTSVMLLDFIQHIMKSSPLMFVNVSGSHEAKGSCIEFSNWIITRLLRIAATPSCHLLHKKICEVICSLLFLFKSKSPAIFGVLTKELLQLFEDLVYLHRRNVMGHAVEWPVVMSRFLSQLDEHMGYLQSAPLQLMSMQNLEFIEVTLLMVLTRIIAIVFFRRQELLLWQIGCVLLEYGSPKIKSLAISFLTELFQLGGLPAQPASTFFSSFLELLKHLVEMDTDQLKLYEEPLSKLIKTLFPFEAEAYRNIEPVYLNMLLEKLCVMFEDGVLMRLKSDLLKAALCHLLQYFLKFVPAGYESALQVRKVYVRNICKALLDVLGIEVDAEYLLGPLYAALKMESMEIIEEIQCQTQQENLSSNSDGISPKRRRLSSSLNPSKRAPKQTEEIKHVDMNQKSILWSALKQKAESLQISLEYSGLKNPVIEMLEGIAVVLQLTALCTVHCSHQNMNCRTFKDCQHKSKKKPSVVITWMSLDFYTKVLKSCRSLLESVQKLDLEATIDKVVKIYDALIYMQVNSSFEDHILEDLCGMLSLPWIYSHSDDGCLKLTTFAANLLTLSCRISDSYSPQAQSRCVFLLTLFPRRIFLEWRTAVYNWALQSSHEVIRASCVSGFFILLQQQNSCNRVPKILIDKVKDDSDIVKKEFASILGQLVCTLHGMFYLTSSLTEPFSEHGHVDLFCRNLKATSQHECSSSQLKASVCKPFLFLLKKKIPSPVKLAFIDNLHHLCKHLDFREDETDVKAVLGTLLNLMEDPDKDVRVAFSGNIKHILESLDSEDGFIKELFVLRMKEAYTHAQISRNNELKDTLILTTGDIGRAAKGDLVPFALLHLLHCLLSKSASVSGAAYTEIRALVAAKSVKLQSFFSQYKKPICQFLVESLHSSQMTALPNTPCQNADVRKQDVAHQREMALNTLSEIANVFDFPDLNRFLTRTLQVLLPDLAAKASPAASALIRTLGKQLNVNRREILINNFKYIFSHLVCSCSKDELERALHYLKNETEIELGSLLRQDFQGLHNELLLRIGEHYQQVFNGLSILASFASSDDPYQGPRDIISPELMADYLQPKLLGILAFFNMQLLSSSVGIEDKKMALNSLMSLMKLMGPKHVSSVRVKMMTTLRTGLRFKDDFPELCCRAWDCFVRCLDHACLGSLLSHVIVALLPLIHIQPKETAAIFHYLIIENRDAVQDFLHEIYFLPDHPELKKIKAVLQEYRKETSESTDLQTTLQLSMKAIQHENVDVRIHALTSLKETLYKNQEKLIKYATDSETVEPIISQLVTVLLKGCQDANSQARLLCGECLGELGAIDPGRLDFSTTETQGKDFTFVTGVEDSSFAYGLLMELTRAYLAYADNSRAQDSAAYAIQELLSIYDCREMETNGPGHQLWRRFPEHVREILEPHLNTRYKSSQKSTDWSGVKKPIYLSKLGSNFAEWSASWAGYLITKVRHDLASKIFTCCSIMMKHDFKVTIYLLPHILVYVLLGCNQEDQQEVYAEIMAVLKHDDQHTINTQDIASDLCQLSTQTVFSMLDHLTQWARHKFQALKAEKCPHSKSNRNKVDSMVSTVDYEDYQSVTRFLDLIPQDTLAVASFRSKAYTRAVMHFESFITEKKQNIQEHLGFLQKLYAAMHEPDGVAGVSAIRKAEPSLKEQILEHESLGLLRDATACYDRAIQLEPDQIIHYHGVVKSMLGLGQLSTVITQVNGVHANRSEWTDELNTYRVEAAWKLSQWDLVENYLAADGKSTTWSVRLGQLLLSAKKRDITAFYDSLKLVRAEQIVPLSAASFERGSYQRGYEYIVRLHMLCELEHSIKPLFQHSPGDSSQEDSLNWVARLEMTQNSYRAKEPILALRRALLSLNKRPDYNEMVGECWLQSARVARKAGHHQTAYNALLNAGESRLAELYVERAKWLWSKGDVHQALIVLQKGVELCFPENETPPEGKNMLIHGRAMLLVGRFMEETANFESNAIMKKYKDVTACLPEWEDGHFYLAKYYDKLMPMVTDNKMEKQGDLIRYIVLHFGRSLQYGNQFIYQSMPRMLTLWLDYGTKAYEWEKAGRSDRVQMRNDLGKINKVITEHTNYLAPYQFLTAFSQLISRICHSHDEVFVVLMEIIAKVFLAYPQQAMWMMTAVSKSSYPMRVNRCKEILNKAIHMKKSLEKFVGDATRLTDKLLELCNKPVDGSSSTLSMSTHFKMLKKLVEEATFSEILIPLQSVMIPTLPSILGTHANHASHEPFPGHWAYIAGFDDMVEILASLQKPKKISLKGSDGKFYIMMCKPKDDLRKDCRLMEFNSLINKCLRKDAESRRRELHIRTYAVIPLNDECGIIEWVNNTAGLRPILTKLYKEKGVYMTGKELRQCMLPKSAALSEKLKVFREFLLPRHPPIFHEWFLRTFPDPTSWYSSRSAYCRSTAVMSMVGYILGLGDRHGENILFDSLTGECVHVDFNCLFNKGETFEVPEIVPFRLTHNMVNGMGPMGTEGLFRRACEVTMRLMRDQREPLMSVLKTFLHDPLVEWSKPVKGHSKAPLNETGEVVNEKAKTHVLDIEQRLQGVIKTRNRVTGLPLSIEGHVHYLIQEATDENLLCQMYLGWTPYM
smiles,measurement,value
"CC(C)S(=O)(=O)c1ccc(-c2cnc(N)c(C3CC(c4ccccc4)=NO3)n2)cc1 (stereo not shown) [Compound I-1, 5-(4-(isopropylsulfonyl)phenyl)-3-(3-phenyl-4,5-dihydroisoxazol-5-yl)pyrazin-2-amine]",Ki,16 nM
